One may read the melting point as the temperature, or range, at which the solid turns liquid. A word on the Ki: it is the equilibrium dissociation constant of an inhibitor or competing ligand from its target.

In one data set the target is T1, human MR (Homo sapiens, UniProt P08235).
T1 construct: The full length human MR gene is cloned from a human kidney or human brain cDNA library; His tag from the pAcHLT vector (own knowledge); made in house; host or cells: Sf9 insect cells (baculovirus, pAcHLT transfer vector)
T1 sequence (P08235 1-984): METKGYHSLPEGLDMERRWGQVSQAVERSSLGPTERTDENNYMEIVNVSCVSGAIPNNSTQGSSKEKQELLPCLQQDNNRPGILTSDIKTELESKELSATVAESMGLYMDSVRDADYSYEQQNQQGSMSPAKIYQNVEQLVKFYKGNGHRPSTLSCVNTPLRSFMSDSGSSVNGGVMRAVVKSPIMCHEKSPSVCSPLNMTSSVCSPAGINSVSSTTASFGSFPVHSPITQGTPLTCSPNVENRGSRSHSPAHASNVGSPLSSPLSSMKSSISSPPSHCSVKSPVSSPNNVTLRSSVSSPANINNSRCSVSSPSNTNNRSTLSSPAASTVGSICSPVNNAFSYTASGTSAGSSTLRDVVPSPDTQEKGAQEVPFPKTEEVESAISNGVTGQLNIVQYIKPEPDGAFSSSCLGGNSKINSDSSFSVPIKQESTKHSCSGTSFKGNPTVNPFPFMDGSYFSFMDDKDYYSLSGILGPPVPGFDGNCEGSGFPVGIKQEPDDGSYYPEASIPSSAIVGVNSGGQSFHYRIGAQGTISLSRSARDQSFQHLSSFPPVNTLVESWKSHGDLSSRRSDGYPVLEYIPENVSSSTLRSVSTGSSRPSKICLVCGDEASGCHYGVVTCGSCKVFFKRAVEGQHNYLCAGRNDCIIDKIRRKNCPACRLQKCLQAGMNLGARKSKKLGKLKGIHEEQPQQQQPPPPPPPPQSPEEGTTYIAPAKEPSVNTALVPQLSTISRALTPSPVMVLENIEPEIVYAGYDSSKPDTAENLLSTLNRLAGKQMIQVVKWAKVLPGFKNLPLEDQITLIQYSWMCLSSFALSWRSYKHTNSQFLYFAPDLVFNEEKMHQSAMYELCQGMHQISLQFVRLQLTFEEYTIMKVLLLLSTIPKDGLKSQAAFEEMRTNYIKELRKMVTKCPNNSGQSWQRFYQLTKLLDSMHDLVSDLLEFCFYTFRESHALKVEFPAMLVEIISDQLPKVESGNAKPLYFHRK
As to the kind of experiment: Mineralocorticoid Receptor Binding Assay ([3H]-aldosterone). The note with it: [3H]-aldosterone binding, human MR expressed in Sf9 cells; read-out: MR Ki. The procedure, abridged:
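Receptor source: freeze-thaw lysate of baculovirus-infected Sf9 cells carrying full-length human MR, 20-25 μg protein. Incubation ~16 h at 4 °C with shaking, pH 7.5 buffer containing 30 mM sodium molybdate and 10% glycerol.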

In a further data set the target is T2, glucocorticoid receptor (Homo sapiens, UniProt P04150).
T2 construct: containing 50-200 ug of A549 cell extract and 1.86 nM [^3H]-dexamethasone; host or cells: A549 human lung epithelial cells (sonicated cell extract)
T2 sequence (P04150 1-777): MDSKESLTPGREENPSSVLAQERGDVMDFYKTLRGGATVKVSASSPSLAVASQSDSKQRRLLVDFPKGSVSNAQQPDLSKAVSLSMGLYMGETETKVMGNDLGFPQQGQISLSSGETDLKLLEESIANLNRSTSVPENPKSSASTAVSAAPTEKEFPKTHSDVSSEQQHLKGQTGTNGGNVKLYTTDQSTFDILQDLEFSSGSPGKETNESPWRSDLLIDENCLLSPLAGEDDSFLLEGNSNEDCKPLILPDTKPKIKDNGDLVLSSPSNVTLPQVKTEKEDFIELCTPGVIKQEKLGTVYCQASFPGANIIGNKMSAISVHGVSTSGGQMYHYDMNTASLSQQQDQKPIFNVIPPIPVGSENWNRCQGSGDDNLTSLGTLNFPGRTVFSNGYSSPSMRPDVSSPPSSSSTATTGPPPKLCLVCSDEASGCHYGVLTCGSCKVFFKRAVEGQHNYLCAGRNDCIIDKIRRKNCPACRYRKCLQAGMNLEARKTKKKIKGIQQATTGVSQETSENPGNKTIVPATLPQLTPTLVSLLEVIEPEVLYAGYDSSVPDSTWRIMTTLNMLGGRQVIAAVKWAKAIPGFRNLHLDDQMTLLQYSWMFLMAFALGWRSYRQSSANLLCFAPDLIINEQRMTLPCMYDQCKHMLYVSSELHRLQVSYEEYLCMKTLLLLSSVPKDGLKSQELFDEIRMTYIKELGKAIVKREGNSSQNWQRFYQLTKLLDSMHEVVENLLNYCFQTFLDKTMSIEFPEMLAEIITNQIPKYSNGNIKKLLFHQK
Kind of data set: Glucocorticoid Receptor Binding Assay ([3H]-dexamethasone, A549 cell extract). As to conditions: [3H]-dexamethasone binding, read-out: GR Ki. The procedure, abridged: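 Displacement of [3H]-dexamethasone (1.86 nM) from glucocorticoid receptor in sonicated A549 lung epithelial cell extracts, 16 h at 4 °C, pH 7.2 molybdate-containing buffer. Bound radioactivity was scintillation-counted after charcoal/dextran stripping of free ligand.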

`COc1ccc(C=C2c3ccccc3CCc3ccccc32)cc1OC` [Example 36, 5-(3,4-Dimethoxy-benzylidene)-10,11-dihydro-5H-dibenzo[a,d]cycloheptene]: the melting point was 102.8 °C.

In the case of `Cc1ccc(C=C2c3ccccc3CCc3ccccc32)c(S(=O)(=O)N2CCOCC2)c1` [Example 22, 4-[2-(10,11-Dihydro-dibenzo[a,d]cyclohepten-5-ylidenemethyl)-5-methyl-benzenesulfonyl]-morpholine], the melting point worked out at 157.2 °C. The same measure, in the same setting: as for `Cc1cc(S(=O)(=O)N2CCOCC2)c(C=C2c3ccccc3CCc3ccccc32)cc1Cl` [Example 12, 4-[4-Chloro-2-(10,11-dihydro-dibenzo[a,d]cyclohepten-5-ylidenemethyl)-5-methyl-benzenesulfonyl]-morpholine], the figure is 194.7 °C; as for `FC(F)Oc1ccc(C=C2c3ccccc3CCc3ccccc32)cc1` [Example 67, 5-(4-Difluoromethoxy-benzylidene)-10,11-dihydro-5H-dibenzo[a,d]cycloheptene], 65.8 °C; as for `Cc1ccc(C=C2c3ccccc3CCc3ccccc32)c(S(=O)(=O)NCc2ccccc2)c1` [Example 15, N-Benzyl-2-(10,11-dihydro-dibenzo[a,d]cyclohepten-5-ylidenemethyl)-5-methyl-benzenesulfonamide], 138.3 °C.

For `COc1ccc(C=C2c3ccccc3CCc3ccccc32)cc1NS(C)(=O)=O` [Example 97, N-[5-(10,11-Dihydro-dibenzo[a,d]cyclohepten-5-ylidenemethyl)-2-methoxy-phenyl]-methanesulfonamide], the melting point was found to be 192.1 °C. On to `CC(=O)Nc1ccccc1C=C1c2ccccc2CCc2ccccc21` [Example 115, N-[2-(10,11-Dihydro-dibenzo[a,d]cyclohepten-5-ylidenemethyl)-phenyl]-acetamide], for which the melting point came out at 189.7 °C. As for `Cc1nc2c(o1)CCc1ccccc1/C2=C/c1cccc(NS(C)(=O)=O)c1` [Example 247, N-[3-(2-Methyl-9,10-dihydro-1-oxa-3-aza-benzo[f]azulen-4-ylidenemethyl)-phenyl]-methanesulfonamide], the melting point amounted to 184.6 °C. `Brc1ccccc1C=C1c2ccccc2CCc2ccccc21` [Example 29, 5-(2-Bromo-benzylidene)-10,11-dihydro-5H-dibenzo-[a,d]cycloheptene] registered a melting point of 122.7 °C. `CCCNS(=O)(=O)c1cc(C)ccc1C=C1c2ccccc2CCc2ccccc21` [Example 20, 2-(10,11-Dihydro-dibenzo[a,d]cyclohepten-5-ylidenemethyl)-5-methyl-N-propyl-benzenesulfonamide] showed a melting point of 149.8 °C. `Nc1cc(C=C2c3ccccc3CCc3ccccc32)ccc1O` [Example 63, 2-Amino-4-(10,11-dihydro-dibenzo[a,d]cyclohepten-5-ylidenemethyl)-phenol] gave a melting point of 158.8 °C. Compound `CCNS(=O)(=O)c1cc(C)ccc1C=C1c2ccccc2CCc2ccccc21` [Example 17, 2-(10,11-Dihydro-dibenzo[a,d]cyclohepten-5-ylidenemethyl)-N-ethyl-5-methyl-benzenesulfonamide] had a melting point of 172.4 °C. In turn, `NS(=O)(=O)c1cccc(C=C2c3ccccc3CCc3ccccc32)c1` [Example 24, 3-(10,11-Dihydro-dibenzo[a,d]cyclohepten-5-ylidenemethyl)-benzenesulfonamide] had a melting point of 204 °C. On to `COc1ccc2c(c1)CCc1ccccc1[C@@H]2Cc1cccc(NS(C)(=O)=O)c1` [Example 351], for which the Ki on human MR and on glucocorticoid receptor was less than 500 nM throughout. In the case of `CS(=O)(=O)Nc1cccc(C(CO)=C2c3ccccc3CCc3ccccc32)c1` [Example 755, N-{3-[1-(10,11-Dihydro-dibenzo[a,d]cyclohepten-5-ylidene)-2-hydroxy-ethyl]-phenyl}-methanesulfonamide], the Ki on human MR and at glucocorticoid receptor was less than 500 nM in each case. In the case of `COc1ccc2c(c1)CSc1ccccc1/C2=C(/C)c1cccc(NS(C)(=O)=O)c1` [Example 841], the Ki at human MR and on glucocorticoid receptor was less than 500 nM each time. As for `CS(=O)(=O)Nc1cccc(/C=C2/c3ccc(Cl)cc3CCc3sccc32)c1` [Example 499], the Ki at human MR and on glucocorticoid receptor was less than 500 nM each time.

Take `C(=C1c2ccccc2CSc2ccccc21)c1ccccc1` [Example 701]: the Ki on human MR and at glucocorticoid receptor was less than 500 nM in each case. Regarding `NS(=O)(=O)c1ccccc1C=C1c2ccccc2CCc2ccccc21` [Example 3, 2-(10,11-Dihydro-dibenzo[a,d]cyclohepten-5-ylidenemethyl)-benzenesulfonamide], the Ki on human MR and at glucocorticoid receptor was less than 1000 nM each time. On to `Fc1cccc2c1CCc1ncccc1C2=Cc1cccc(Cl)c1` [Example 575], for which the inhibition constant Ki on human MR and at glucocorticoid receptor was less than 500 nM each time. On to `COc1ccc2c(c1OC)CSc1ccccc1/C2=C\c1cccc(NS(C)(=O)=O)c1` [Example 685], for which the Ki at human MR and on glucocorticoid receptor was less than 500 nM throughout. With `C(=C1c2ccccc2CCc2ccccc21)c1cn[nH]c1` [Example 439], the Ki at human MR and on glucocorticoid receptor was less than 500 nM throughout. For `CS(=O)(=O)Nc1cccc(CC2c3ccc(F)cc3CCc3ncccc32)c1` (stereo not shown) [Example 520], the Ki on human MR and on glucocorticoid receptor was less than 500 nM throughout.

Consider `CS(=O)(=O)Nc1cccc(/C=C2/c3ccccc3COc3cc(C(F)(F)F)ccc32)c1` [Example 682], for which the inhibition constant (Ki) on human MR and at glucocorticoid receptor was less than 500 nM in each case.

As to `O=c1[nH]c2cc(/C=C3\c4ccc(F)cc4COc4cc(F)ccc43)ccc2n1CCN1CCOCC1` [Example 617, 5-(3,8-Difluoro-6H-dibenzo[b,e]oxepin-11-ylidenemethyl)-1-(2-morpholin-4-yl-ethyl)-1,3-dihydro-benzoimidazol-2-one], the Ki at human MR and at glucocorticoid receptor was less than 500 nM in each case. Regarding `Oc1cccc(/C=C2/c3ccccc3CCc3ccncc32)c1` [Example 514], the Ki is less than 1000 nM on human MR and less than 500 nM at glucocorticoid receptor.

On to `COc1cccc(C=C2c3cc(Cl)ccc3NC(=O)c3ccccc32)c1` [Example 654], for which the inhibition constant Ki at human MR and on glucocorticoid receptor was less than 500 nM in each case. In the case of `O=c1[nH]c2ccc(C=C3c4ccccc4CCc4ccccc43)cc2[nH]1` [Example 223, 5-(10,11-Dihydro-dibenzo[a,d]cyclohepten-5-ylidenemethyl)-l,3-dihydro-benzoimidazol-2-one], the inhibition constant Ki on human MR was less than 500 nM; on glucocorticoid receptor, less than 10000 nM.

Source of the values: US20060063759A1, “Tricyclic steroid hormone nuclear receptor modulators” (priority 2002, published 2006).
